Laboratory results taken from ChEMBL document CHEMBL3044799, “Biological activity of the succinate dehydrogenase inhibitor fluopyram against Botrytis cinerea and fungal baseline sensitivity” (Pest Manag Sci, 2012).
In brackets after ≈: the same amount, converted by molar mass. Activity calls are given as the source filed them. No cut-off for these calls is given here.

Experiments:
Botrytis cinerea [1] = experiment: Antifungal activity against Botryotinia fuckeliana grown on succinate medium assessed as inhibition of spore germination at 5 ug/ml after 10 days; assay type: functional, organism-based
Botrytis cinerea [2] = experiment: Curative antifungal activity against Botryotinia fuckeliana inoculated in strawberry fruit assessed as disease control efficacy at 100 ug AI/ml applied 96 hr post-inoculation relative to control; assay type: functional
Botrytis cinerea [3] = experiment: Curative antifungal activity against Botryotinia fuckeliana inoculated in strawberry fruit assessed as disease severity measuring lesion diameter at 50 ug AI/ml applied 48 hr post-inoculation; assay type: functional
Botrytis cinerea [4] = experiment: Protective antifungal activity against Botryotinia fuckeliana inoculated in fungicide-applied strawberry fruit assessed as disease control efficacy at 1 ug AI/ml applied 48 hr prior inoculation relative to control; assay type: functional
Botrytis cinerea [5] = experiment: Protective antifungal activity against Botryotinia fuckeliana inoculated in fungicide-applied strawberry fruit assessed as disease severity measuring lesion diameter at 10 ug AI/ml applied 48 hr prior inoculation; assay type: functional
Botrytis cinerea [6] = experiment: Protective antifungal activity against Botryotinia fuckeliana inoculated in fungicide-applied strawberry fruit assessed as disease severity measuring lesion diameter at 1 ug AI/ml applied 24 hr prior inoculation; assay type: functional
Botrytis cinerea [7] = experiment: Curative antifungal activity against Botryotinia fuckeliana inoculated in strawberry fruit assessed as disease control efficacy at 10 ug AI/ml applied 48 hr post-inoculation relative to control; assay type: functional
Botrytis cinerea [8] = experiment: Curative antifungal activity against Botryotinia fuckeliana inoculated in strawberry fruit assessed as disease severity measuring lesion diameter at 100 ug AI/ml applied 96 hr post-inoculation; assay type: functional
Botrytis cinerea [9] = experiment: Protective antifungal activity against Botryotinia fuckeliana inoculated in fungicide-applied strawberry fruit assessed as disease control efficacy at 50 ug AI/ml applied 24 hr prior inoculation relative to control; assay type: functional
Botrytis cinerea [10] = experiment: Protective antifungal activity against Botryotinia fuckeliana inoculated in fungicide-applied strawberry fruit assessed as disease control efficacy at 100 ug AI/ml applied 96 hr prior-inoculation relative to control; assay type: functional
Botrytis cinerea [11] = experiment: Protective antifungal activity against Botryotinia fuckeliana inoculated in fungicide-applied strawberry fruit assessed as disease severity measuring lesion diameter at 100 ug AI/ml applied 24 hr prior inoculation; assay type: functional
Botrytis cinerea [12] = experiment: Antifungal activity against Botryotinia fuckeliana obtained from tomato isolate assessed as inhibition of spore germ tube growth; assay type: functional, organism-based
Botrytis cinerea [13] = experiment: Curative antifungal activity against Botryotinia fuckeliana inoculated in strawberry fruit assessed as disease control efficacy at 1 ug AI/ml applied 96 hr post-inoculation relative to control; assay type: functional
Botrytis cinerea [14] = experiment: Antifungal activity against Botryotinia fuckeliana assessed as inhibition of germ tube growth at 0.001 to 10 ug/ml after 10 days; assay type: functional, organism-based
Botrytis cinerea [15] = experiment: Curative antifungal activity against Botryotinia fuckeliana inoculated in strawberry fruit assessed as disease control efficacy at 1 ug AI/ml applied 48 hr post-inoculation relative to control; assay type: functional
Botrytis cinerea [16] = experiment: Protective antifungal activity against Botryotinia fuckeliana inoculated in fungicide-applied strawberry fruit assessed as disease control efficacy at 1 ug AI/ml applied 24 hr prior inoculation relative to control; assay type: functional
Botrytis cinerea [17] = experiment: Protective antifungal activity against Botryotinia fuckeliana inoculated in fungicide-applied strawberry fruit assessed as disease control efficacy at 100 ug AI/ml applied 24 hr prior inoculation relative to control; assay type: functional
Botrytis cinerea [18] = experiment: Protective antifungal activity against Botryotinia fuckeliana inoculated in fungicide-applied strawberry fruit assessed as disease severity measuring lesion diameter at 1 ug AI/ml applied 96 hr prior-inoculation; assay type: functional
Botrytis cinerea [19] = experiment: Curative antifungal activity against Botryotinia fuckeliana inoculated in strawberry fruit assessed as disease severity measuring lesion diameter at 10 ug AI/ml applied 48 hr post-inoculation; assay type: functional
Botrytis cinerea [20] = experiment: Protective antifungal activity against Botryotinia fuckeliana inoculated in fungicide-applied strawberry fruit assessed as disease severity measuring lesion diameter at 50 ug AI/ml applied 24 hr prior inoculation; assay type: functional
Botrytis cinerea [21] = experiment: Curative antifungal activity against Botryotinia fuckeliana inoculated in strawberry fruit assessed as disease severity measuring lesion diameter at 50 ug AI/ml applied 24 hr post-inoculation; assay type: functional
Botrytis cinerea [22] = experiment: Protective antifungal activity against Botryotinia fuckeliana inoculated in fungicide-applied strawberry fruit assessed as disease control efficacy at 10 ug AI/ml applied 24 hr prior inoculation relative to control; assay type: functional
Botrytis cinerea [23] = experiment: Curative antifungal activity against Botryotinia fuckeliana inoculated in strawberry fruit assessed as disease control efficacy at 50 ug AI/ml applied 96 hr post-inoculation relative to control; assay type: functional

With O=C(NCCc1ncc(C(F)(F)F)cc1Cl)c1ccccc1C(F)(F)F [FLUOPYRAM] the “growth inhibition (GI)” value (Botrytis cinerea [1]) was “Active”, the Efficacy (Botrytis cinerea [2]) was 62.5% and the Activity (Botrytis cinerea [3]) was 3.2 mm. For the same molecule, the Efficacy (Botrytis cinerea [4]) was 54.3%, the Activity (Botrytis cinerea [5]) was 5.5 mm and the Activity (Botrytis cinerea [6]) was 6.3 mm. For the same molecule, the Efficacy (Botrytis cinerea [7]) was 81.2%, the Activity (Botrytis cinerea [8]) was 7 mm and the Efficacy (Botrytis cinerea [9]) was 93.9%. The Efficacy (Botrytis cinerea [10]) was 93.9%, the Activity (Botrytis cinerea [11]) was 0 mm and the EC50 (Botrytis cinerea [12]) was 0.11 µg/mL (≈ 0.277 µM). The Efficacy (Botrytis cinerea [13]) was 37.2%, the “growth inhibition (GI)” value (Botrytis cinerea [14]) was “Active” and the Efficacy (Botrytis cinerea [15]) was 63.3%. It also gave an Efficacy (Botrytis cinerea [16]) of 66.4%, an Efficacy (Botrytis cinerea [17]) of 100% and an Activity (Botrytis cinerea [18]) of 8.7 mm. For the same molecule, the Activity (Botrytis cinerea [19]) was 3.5 mm, the Activity (Botrytis cinerea [20]) was 1.1 mm and the Activity (Botrytis cinerea [21]) was 4.2 mm. It also gave an Efficacy (Botrytis cinerea [22]) of 77.2% and an Efficacy (Botrytis cinerea [23]) of 45.1%.
